Measurements taken from US20220142995A1, “DUAL ATM AND DNA-PK INHIBITORS FOR USE IN ANTI-TUMOR THERAPY” (XRAD Therapeutics, Inc., priority 2019, published 2022).

How the values were obtained:
Format in all cases: in vivo, mice
[1] = test system: pDNA-PK/DNA-PK in FADU tumors; test: Pharmacodynamic assay, pDNA-PK/DNA-PK in FADU tumors; settings: for pDNA-PK/DNA-PK: FADU tumors
From the text: (§1) Tumor Studies. Female NCr nu/nu mice (Crl:NU(NCr)-Foxn1 nu, Strain 490) were obtained from Charles River at 5-6 weeks of age. All animal procedures used in these studies were approved by the Institutional Animal Care and Use Committee (IACUC) at Duke University.
(§2) FADU or MDA-MB-231 cells were harvested during log phase growth for in vivo implantation. The resuspended cells were washed three times in phosphate buffered saline (PBS) before preparing the working dilution in PBS. FADU cells were diluted to 1×10^7 cells/mL and MDA-MB-231 cells were diluted to 5×10^7 cells/mL. Each mouse was injected subcutaneously in the right flank with 100 μL of the cellular suspension. Tumor growth was monitored until the tumors reached a target volume of at least 100 mm^3, at which point mice were randomly stratified into four treatment groups.
(§3) The vehicle used in this study was 0.5% (Hydroxypropyl)methyl cellulose (HPMC) and 0.2% Tween80 dissolved in deionized water. The pH of the vehicle was adjusted to 7.0-8.0 and the vehicle was stored at 4° C. On each day of in vivo treatment an appropriate mass of test compound was added to the vehicle at room temperature. The mixture was vortexed as necessary to generate a final concentration of 1.6 mg/mL.
(§4) Pharmacodynamic (PD) assays. Tumor studies were performed as follows. Mice bearing FADU or MDA-231 tumors were pre-dosed with vehicle alone or compound 569 alone at 3, 6, and 10 mg/kg. Tumors were then irradiated with 10 Gy 45 min after vehicle or compound 569 administration or left unirradiated (vehicle and compound 569 at 10 mg/kg). Tumors were harvested 1 h post radiation.
(§5) Tissue homogenates for pharmacodynamic analyses were collected and processed as follows. Tumor tissues from FADU or MDA-MB-231 tumors were flash frozen in liquid nitrogen and pulverized on dry ice using a tissue pulverizer. A portion of the tumor powder was transferred into a microtube, followed by addition of 500 μL of RIPA buffer [[…], pH 8.0, 150 mM NaCl, 0.1% SDS, 0.5% sodium deoxycholate, 1% IGEPAL® CA-630 (Sigma, 18896)]. To 10 ml of RIPA buffer, 2 tablets each of Protease inhibitor and Phosphatase inhibitor (Roche, #04693159001 & #04906837001), 200 μL of 0.1 M PMSF and 160 μL of Aprotinin, (Sigma, A6279) were added. The suspension was homogenized on ice with a pellet pestle motor (KONTES) and incubated on ice for 30 minutes. Cell lysates were centrifuged at 13,200 rpm for 15 min at 4° C. and supernatants were transferred to a new tube and analyzed for protein concentration with a BCA kit (Pierce, 23227), followed by immunoblotting.

[2] = test system: pKAP1/KAP1 in FADU tumors; test: Pharmacodynamic assay, pKAP1/KAP1 in FADU tumors; settings: for pKAP1/KAP1: FADU tumors
From the text: as §1, §2, §3, §4, §5

[3] = test system: pDNA-PK/DNA-PK in MDA-231 tumors; test: Pharmacodynamic assay, pDNA-PK/DNA-PK in MDA-231 tumors
From the text: as §1, §2, §3, §4, §5

[4] = 10 Gy, 3 mg/kg oral, harvested 1 h post radiation
[5] = 10 Gy, 6 mg/kg oral, harvested 1 h post radiation
[6] = 10 Gy, 10 mg/kg oral, harvested 1 h post radiation

`CC(C)NCCOc1ncc(-c2cc3c4c(cnc3cc2F)N(C)C(=O)C42CCC2)cc1NS(C)(=O)=O` [Compound 569, N-(5-(7′-Fluoro-3′-methyl-2′-oxo-2′,3′-dihydrospiro[cyclobutane-1,1′-pyrrolo[2,3-c]quinolin]-8′-yl)-2-(2-(isopropylamino)ethoxy)pyridin-3-yl)methanesulfonamide] was tested, and the “inhibition of radiation-induced DNA-PK autophosphorylation and KAP1 phosphorylation in tumors” value ([1]; FADU and MDA231 tumors, 10 Gy, 3, 6 and 10 mg/kg oral) was “dose-dependent inhibition”, the pDNA-PK/DNA-PK [1, 4] was 0.938 and the pDNA-PK/DNA-PK [1, 5] was 0.658. For the same compound, the pDNA-PK/DNA-PK [1, 6] was 0.476, the pDNA-PK/DNA-PK ([1]; no radiation, 10 mg/kg oral) was 0.343 and the inhibition at 10 mg/kg ([1]; Mus musculus, FADU and MDA231 tumors (FIGS. 4 and 5, Tables 2-5), 10 Gy, 10 mg/kg, read-out: inhibition of tumor levels of radiation-induced autophosphorylation of DNA-PK) was roughly 55%. For the same compound, the “basal phosphorylation of DNA-PK in tumors” value ([1]; unirradiated tumors, 10 mg/kg) was “inhibited”, the pKAP1/KAP1 [2, 4] was 0.0903 and the pKAP1/KAP1 [2, 5] was 0.0982. For the same compound, the pKAP1/KAP1 [2, 6] was 0.156, the pKAP1/KAP1 ([2]; no radiation, 10 mg/kg oral) was 0.00595 and the inhibition at 10 mg/kg ([2]; Mus musculus, FADU and MDA231 tumors (FIGS. 4 and 5, Tables 2-5), 10 Gy, 10 mg/kg, read-out: inhibition of tumor levels of radiation-induced phosphorylation of KAP1) was greater than 80%. It also gave a pDNA-PK/DNA-PK [3, 4] of 0.889, a pDNA-PK/DNA-PK [3, 5] of 0.670 and a pDNA-PK/DNA-PK [3, 6] of 0.454. It also gave a pDNA-PK/DNA-PK ([3]; no radiation, 10 mg/kg oral) of 0.223.
